# pKi: −log10 of the molar value.
# Molecular target: T1, human GlyT1c transporter (Homo sapiens, UniProt P48067)
# T1 construct: expressed in transfected cells; host or cells: CHO cells (recombinant; line hGlyT1c_5_CHO is named for the uptake assay)
# T1 sequence (P48067 1-706): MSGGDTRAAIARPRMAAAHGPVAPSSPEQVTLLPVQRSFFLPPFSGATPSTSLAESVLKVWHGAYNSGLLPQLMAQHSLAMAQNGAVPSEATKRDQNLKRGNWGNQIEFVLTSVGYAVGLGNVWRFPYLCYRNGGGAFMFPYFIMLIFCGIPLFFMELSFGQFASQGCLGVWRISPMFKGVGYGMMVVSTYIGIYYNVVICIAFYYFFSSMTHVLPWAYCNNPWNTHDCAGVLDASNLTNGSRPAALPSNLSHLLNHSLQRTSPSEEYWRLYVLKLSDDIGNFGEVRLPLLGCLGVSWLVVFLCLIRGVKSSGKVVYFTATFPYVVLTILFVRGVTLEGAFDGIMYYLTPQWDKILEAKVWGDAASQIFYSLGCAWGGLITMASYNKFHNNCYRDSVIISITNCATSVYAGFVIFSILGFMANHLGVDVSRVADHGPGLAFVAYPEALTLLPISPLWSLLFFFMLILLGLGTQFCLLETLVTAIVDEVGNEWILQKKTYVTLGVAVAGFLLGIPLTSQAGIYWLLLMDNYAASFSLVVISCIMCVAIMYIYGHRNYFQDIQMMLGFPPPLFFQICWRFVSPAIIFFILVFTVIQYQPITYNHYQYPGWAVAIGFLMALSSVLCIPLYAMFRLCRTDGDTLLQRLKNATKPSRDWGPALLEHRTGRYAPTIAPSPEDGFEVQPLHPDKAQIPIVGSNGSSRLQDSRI
# Assay: Radioligand binding assay using recombinant CHO cell membranes expressing human GlyT1
# Conditions: radioligand binding to human GlyT1c transporter-expressing membranes
# Description: 2. Radioligand binding assays using recombinant CHO cell membranes expressing human GlyT1: […]
row,Compound,pKi
1,"COc1nc(N[C@H]2CN(S(=O)(=O)c3cn(C)cn3)C[C@@H]2c2ccccc2)cc(C(F)(F)F)n1 [Example 605, 2-methoxy-N-{(3R,4S)-1-[(1-methyl-1H-imidazol-4-yl)sulfonyl]-4-phenylpyrrolidin-3-yl} -6-(trifluoromethyl)pyrimidin-4-amine]",≥ 6.00
2,"Cn1cnc(S(=O)(=O)N2C[C@@H](CNCC3CC3)[C@H](c3ccc(F)cc3)C2)c1 [Example 607, 1-cyclopropyl-N-({(3R,4R)-4-(4-fluorophenyl)-1-[(1-methyl-1H-imidazol-4-yl)sulfonyl]pyrrolidin-3-yl}methyl)methanamine]",≥ 5.00
3,"Cn1cnc(S(=O)(=O)N2CC(Nc3ccc(F)c(F)c3)C(C3CCCO3)C2)c1 (centres unmarked) [Example 610, N-(3,4-difluorophenyl)-1-[(1-methyl-1H-imidazol-4-yl)sulfonyl]-4-[-tetrahydrofuran-2-yl]pyrrolidin-3-amine]",≥ 5.00
4,"Cn1cnc(S(=O)(=O)N2C[C@H](Nc3cc(C4CC4)ncn3)[C@@H](c3ccccc3)C2)c1 [Example 612, 6-cyclopropyl-N-{(3R,4S)-1-[(1-methyl-1H-imidazol-4-yl)sulfonyl]-4-phenylpyrrolidin-3-yl}pyrimidin-4-amine]",≥ 6.00
5,"CCc1cc(N[C@H]2CN(S(=O)(=O)c3cn(C)cn3)C[C@@H]2c2ccc(F)cc2)ncn1 [Example 613, 6-ethyl-N-{(3R,4S)-4-(4-fluorophenyl)-1-[(1-methyl-1H-imidazol-4-yl)sulfonyl]pyrrolidin-3-yl}pyrimidin-4-amine]",≥ 6.00
6,"CC(C)c1cc(N[C@H]2CN(S(=O)(=O)c3cn(C)cn3)C[C@@H]2c2ccc(F)cc2)ncn1 [Example 614, N-{(3R,4S)-4-(4-fluorophenyl)-1-[(1-methyl-1H-imidazol-4-yl)sulfonyl]pyrrolidin-3-yl}-6-(propan-2-yl)pyrimidin-4-amine]",≥ 6.00
7,"Cc1nc(N[C@H]2CN(S(=O)(=O)c3cn(C)cn3)C[C@@H]2c2ccc(F)cc2)cc(C(F)(F)F)n1 [Example 615, N-{(3R,4S)-4-(4-fluorophenyl)-1-[(1-methyl-1H-imidazol-4-yl)sulfonyl]pyrrolidin-3-yl}-2-methyl-6-(trifluoromethyl)pyrimidin-4-amine]",≥ 6.00
8,"CCCc1cc(N[C@H]2CN(S(=O)(=O)c3cn(C)cn3)C[C@@H]2c2ccc(F)cc2)ncn1 [Example 616, N-{(3R,4S)-4-(4-fluorophenyl)-1-[(1-methyl-1H-imidazol-4-yl)sulfonyl]pyrrolidin-3-yl}-6-propylpyrimidin-4-amine]",≥ 6.00
9,"Cn1cnc(S(=O)(=O)N2C[C@H](Nc3cc(C(F)(F)F)c(Cl)cn3)[C@@H](c3ccc(F)cc3)C2)c1 [Example 617, 5-chloro-N-{(3R,4S)-4-(4-fluorophenyl)-1-[(1-methyl-1H-imidazol-4-yl)sulfonyl]pyrrolidin-3-yl}-4-(trifluoromethyl)pyridin-2-amine]",≥ 8.00
10,"Cn1cnc(S(=O)(=O)N2C[C@@H](Nc3ccc(Cl)c(C(F)(F)F)c3)[C@H](C3CCCO3)C2)c1 (stereo partly drawn) [Example 618, (3S,4R)-N-[4-chloro-3-(trifluoromethyl)phenyl]-1-[(1-methyl-1H-imidazol-4-yl)sulfonyl]-4-(tetrahydrofuran-2-yl)pyrrolidin-3-amine]",≥ 6.00
11,"Cn1cnc(S(=O)(=O)N2C[C@H](Nc3ccc(Cl)c(C(F)(F)F)c3)[C@@H](C3CCCO3)C2)c1 (stereo partly drawn) [Example 619, (3R,4S)-N-[4-chloro-3-(trifluoromethyl)phenyl]-1-[(1-methyl-1H-imidazol-4-yl)sulfonyl]-4-(tetrahydrofuran-2-yl)pyrrolidin-3-amine]",≥ 6.00
12,"CCOc1cc(N[C@H]2CN(S(=O)(=O)c3cn(C)cn3)C[C@@H]2c2ccccc2)ncn1 [Example 620, 6-ethoxy-N-{(3R,4S)-1-[(1-methyl-1H-imidazol-4-yl)sulfonyl]-4-phenylpyrrolidin-3-yl}pyrimidin-4-amine]",≥ 6.00
13,"CC(C)COc1cc(N[C@H]2CN(S(=O)(=O)c3cn(C)cn3)C[C@@H]2c2ccccc2)ncn1 [Example 624, N-{(3R,4S)-1-[(1-methyl-1H-imidazol-4-yl)sulfonyl]-4-phenylpyrrolidin-3-yl}-6-(2-methylpropoxy)pyrimidin-4-amine]",≥ 6.00
14,"CCCCCCO[C@H]1CN(S(=O)(=O)c2cn(C)cn2)C[C@@H]1c1ccc(F)cc1 [Example 625, 4-{[(3S,4R)-3-(4-fluorophenyl)-4-(hexyloxy)pyrrolidin-1-yl]sulfonyl}-1-methyl-1H-imidazole]",≥ 8.00
15,"Cc1ccc(N[C@H]2CN(S(=O)(=O)c3cn(C)cn3)C[C@@H]2c2ccc(F)cc2)cc1C(F)(F)F [Example 638, (3R,4S)-4-(4-fluorophenyl)-1-[(1-methyl-1H-imidazol-4-yl)sulfonyl]-N-[4-methyl-3-(trifluoromethyl)phenyl]pyrrolidin-3-amine]",≥ 6.00
16,"Cn1cnc(S(=O)(=O)N2C[C@H](Nc3ccc(C#N)c(C(F)(F)F)c3)[C@@H](c3ccc(F)cc3)C2)c1 [Example 639, 4-({(3R,4S)-4-(4-fluorophenyl)-1-[(1-methyl-1H-imidazol-4-yl)sulfonyl]pyrrolidin-3-yl}amino)-2-(trifluoromethyl)benzonitrile]",≥ 5.00
17,"CCCn1cc([C@H]2CN(S(=O)(=O)c3cn(C)cn3)C[C@@H]2c2ccc(F)cc2)nn1 [Example 640, 4-{(3R,4S)-4-(4-fluorophenyl)-1-[(1-methyl-1H-imidazol-4-yl)sulfonyl]pyrrolidin-3-yl}-1-propyl-1H-1,2,3-triazole]",≥ 6.00
18,"Cn1cnc(S(=O)(=O)N2C[C@H](NC(=O)COc3ccc(F)cc3)[C@@H](c3ccc(F)cc3)C2)c1 [Example 644, 2-(4-fluorophenoxy)-N-{(3R,4S)-4-(4-fluorophenyl)-1-[(1-methyl-1H-imidazol-4-yl)sulfonyl]pyrrolidin-3-yl}acetamide]",≥ 5.00
19,"Cn1cnc(S(=O)(=O)N2C[C@H](Nc3ccc(F)c(OC(F)(F)F)c3)[C@@H](c3ccccc3)C2)c1 [Example 646, (3R,4S)-N-[4-fluoro-3-(trifluoromethoxy)phenyl]-1-[(1-methyl-1H-imidazol-4-yl)sulfonyl]-4-phenylpyrrolidin-3-amine]",≥ 8.00

# Now from value to compound:
row,pKi,Compound
1,≥ 5.00,"COCCN[C@H]1CN(S(=O)(=O)c2cn(C)cn2)C[C@@H]1c1ccccc1 [Example 600, (3R,4S)-N-(2-methoxyethyl)-1-[(1-methyl-1H-imidazol-4-yl)sulfonyl]-4-phenylpyrrolidin-3-amine]"
2,≥ 7.00,"Cn1cnc(S(=O)(=O)N2C[C@H](Nc3cc(Cl)ncn3)[C@@H](c3ccccc3)C2)c1 [Example 606, 6-chloro-N-{(3R,4S)-1-[(1-methyl-1H-imidazol-4-yl)sulfonyl]-4-phenylpyrrolidin-3-yl}pyrimidin-4-amine]"
3,≥ 5.00,"CCOCCN[C@H]1CN(S(=O)(=O)c2cn(C)cn2)C[C@@H]1c1ccccc1 [Example 608, (3R,4S)-N-(2-ethoxyethyl)-1-[(1-methyl-1H-imidazol-4-yl)sulfonyl]-4-phenylpyrrolidin-3-amine]"
4,≥ 6.00,"CCCOCCN[C@H]1CN(S(=O)(=O)c2cn(C)cn2)C[C@@H]1c1ccccc1 [Example 609, (3R,4S)-1-[(1-methyl-1H-imidazol-4-yl)sulfonyl]-4-phenyl-N-(2-propoxyethyl)pyrrolidin-3-amine]"
5,≥ 5.00,"COc1cc(N[C@H]2CN(S(=O)(=O)c3cn(C)cn3)C[C@@H]2c2ccccc2)ncn1 [Example 621, 6-methoxy-N-{(3R,4S)-1-[(1-methyl-1H-imidazol-4-yl)sulfonyl]-4-phenylpyrrolidin-3-yl}pyrimidin-4-amine]"
6,≥ 5.00,"Cc1cc(N[C@H]2CN(S(=O)(=O)c3cn(C)cn3)C[C@@H]2c2ccccc2)ncn1 [Example 637, 6-methyl-N-{(3R,4S)-1-[(1-methyl-1H-imidazol-4-yl)sulfonyl]-4-phenylpyrrolidin-3-yl}pyrimidin-4-amine]"
7,≥ 5.00,"COCCCCN[C@H]1CN(S(=O)(=O)c2cn(C)cn2)C[C@@H]1c1ccccc1 [Example 647, (3R,4S)-N-(4-methoxybutyl)-1-[(1-methyl-1H-imidazol-4-yl)sulfonyl]-4-phenylpyrrolidin-3-amine]"
8,≥ 5.00,"CCC(CCCN[C@H]1CN(S(=O)(=O)c2cn(C)cn2)C[C@@H]1c1ccccc1)OC (stereo partly drawn) [Example 648, (3R,4S)-N-(4-methoxyhexyl)-1-[(1-methyl-1H-imidazol-4-yl)sulfonyl]-4-phenylpyrrolidin-3-amine]"
9,≥ 7.00,"CCCC1CC1CN[C@H]1CN(S(=O)(=O)c2cn(C)cn2)C[C@@H]1c1ccccc1 (stereo partly drawn) [Example 649, (3R,4S)-1-[(1-methyl-1H-imidazol-4-yl)sulfonyl]-4-phenyl-N-[(2-propylcyclopropyl)methyl]pyrrolidin-3-amine]"
10,≥ 6.00,"CCCC1CC1CN[C@H]1CN(S(=O)(=O)c2cn(C)cn2)C[C@@H]1c1ccccc1 (stereo partly drawn) [Example 650, (3R,4S)-1-[(1-methyl-1H-imidazol-4-yl)sulfonyl]-4-phenyl-N-[(2-propylcyclopropyl)methyl]pyrrolidin-3-amine]"

# — EP2970215B1, “PYRROLIDINE DERIVATIVES, PHARMACEUTICAL COMPOSITIONS CONTAINING THEM, AND THEIR USE IN THERAPY” (AbbVie Deutschland GmbH & Co. KG, priority 2013, dated 2014)
